Each structure is given as a SMILES string.

We go through 81 compounds from the METLIN SMRT retention time set (Domingo-Almenara et al. 2019).

The data set in a line: gradient 5% acetonitrile 3 min, to 50% in 2 min, to 85% in 15 min, held 3 min, 100 µL/min. The conditions noted are these: column: Zorbax Extend-C18 2.1 x 50 mm; eluents: water / acetonitrile, 0.1% formic acid. An outline of the steps:
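Retention times come from adduct peaks that were picked computationally and then checked by hand. The standards, pure and pooled in mixtures of ~100 molecules, were run on a Zorbax Extend-C18 column (2.1 × 50 mm, 1.8 μm) at 100 μL/min with water and acetonitrile, each with 0.1% formic acid. Detection was by quadrupole time-of-flight mass spectrometry in positive and negative ionization mode, with a dead volume of 40 μL and a dwell volume of 900 μL.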
As to `C=C[C@H]1CN2CCC1C[C@@H]2C(O)c1ccnc2ccccc12` (stereo partly specified), the RP-LC retention time is 576 s.
The value for `Cc1cc(C)cc(Nc2nc(C)cc3nn(CC(=O)N4CCOCC4)c(=O)n23)c1` was 601 s; that for `CC1(C)Cc2cccc(OCC(=O)N3CCC(c4nnc(-c5ccco5)s4)CC3)c2O1` was 827 s.
The result for `CCOc1ccccc1-c1nc(Cc2noc(-c3ccccc3)n2)c(C)o1` reads 1170 s.
`Cc1ccc(N2CCOCC2)c2c1C(=O)c1ccccc1C2=O` yielded an RP-LC retention time of 927 s.
The result for `CNc1nc(Nc2ccc(F)cc2)nc2ccccc12` reads 655 s; that for `CCSc1ccccc1C(=O)NCC1CCN(S(=O)(=O)C2CC2)CC1`, 725 s.
In turn, `COc1cc(NC(=O)Cn2cccc2-c2nnc(-c3ccccc3)o2)cc(OC)c1` displayed an RP-LC retention time of 993 s.
The value for `CCCCn1cc(S(=O)(=O)NC2CCCCC2)c2cccnc21` was 1010 s; that for `Cc1sc(-c2cc(C(F)(F)F)on2)cc1S(=O)(=O)N1CCN(c2ccccc2)CC1` was 1300 s; that for `Cc1ccc(CNC(=O)C2CCN(S(=O)(=O)c3cc(-c4noc(C5CC5)n4)cs3)CC2)cc1` was 998 s.
The value for `O=C(Nc1ccc(-n2cnc(C(=O)N3CCc4ccccc4C3)c2)nc1)C1CC1` was 733 s; that for `COc1ccc(-n2ccn3cc(-c4cccs4)nc3c2=O)cc1Cl` was 818 s; that for `Cc1cccc(OCC(=O)N(Cc2ccc(Br)o2)C2CCS(=O)(=O)C2)c1C` (stereo unspecified) was 960 s.
`CCc1cccc(NS(=O)(=O)c2c[nH]c3ncccc23)c1` registered an RP-LC retention time of 762 s.
The value for `Cn1cnnc1SCCNC(=O)Cc1csc(Nc2ncccn2)n1` was 564 s; that for `O=C(NC1CC1)c1nc(C(=O)N2CCN(c3ccccc3Cl)CC2)cs1` was 881 s; that for `COc1ccccc1-c1nc2nccc(-c3ccccc3)n2n1` was 862 s.
With `COCCOCc1nc(C2CCN(S(=O)(=O)c3ccc(OC)cc3)C2)no1` (stereo unspecified), the RP-LC retention time came out at 791 s.
With `CCN(CC)CCCNC(=O)c1cn(C)nc1S(=O)(=O)N1CCN(c2ccc(Cl)cc2)CC1`, the RP-LC retention time is 729 s.
The result for `Cc1cc2c(cc1S(=O)(=O)N1CCCC1C(=O)N1CCc3ccccc3C1)OCC(=O)N2` (stereo unspecified) reads 748 s.
The result for `CCOC(=O)Cn1c(C2CCCN2C(=O)CC)nc2ccccc21` (stereo unspecified) reads 613 s; that for `c1ccc(-c2nc(C3CC3)no2)c(OC2CCNC2)c1` (stereo unspecified), 588 s.
The compound `COc1cccc(S(=O)(=O)N2CCC3(CC2)N(C)C(=O)CS3=O)c1` (stereo unspecified) registered an RP-LC retention time of 653 s.
The value for `Cc1nnc(-c2cc3ccccc3n2CC(=O)Nc2ccc(C(F)(F)F)cc2)o1` was 966 s; that for `CN1C(=O)C2(CCN(C(=O)NC3CCCCC3)CC2)c2ccccc21` was 807 s.
The value for `Cc1cc(C)cc(NC(=O)C2CCCN(c3nc4ccsc4c(=O)n3-c3cccc(C)c3)C2)c1` (stereo unspecified) was 1100 s.
The value for `COc1ccc(NC(=O)c2[nH]c3cc(C)sc3c2CN(C)C)c(OC)c1` was 678 s; that for `Nc1cc(C2CCN(C(=O)Nc3ccccc3F)CC2)no1` was 649 s; that for `O=C(Cc1cccs1)N1CCN(C(=O)c2cc3ccccc3[nH]2)CC1` was 767 s.
For the compound `Cc1ccc(CNC(=O)c2ccc(-c3ccsc3)nc2)cc1`, the RP-LC retention time was 905 s.
The value for `CCOc1nc2ccccc2nc1N1CCCC(C(=O)NCc2ccccc2Cl)C1` (stereo unspecified) was 1220 s; that for `Cc1cccc(NC(=O)c2cccn2Cc2noc(C3CC3)n2)c1C` was 954 s; that for `Cc1c(S(=O)(=O)NCc2ccccc2Cl)c(C)n(C)c1-c1nnc(C2CCC2)o1` was 1000 s.
The value for `CCCCNC(=O)Cn1c(=O)c2cnc(-c3ccccc3)nc2n(CC)c1=O` was 937 s; that for `Cc1cccc(Sc2nccnc2N2CCCC(C(=O)N3CCN(c4ccccn4)CC3)C2)c1` (stereo unspecified) was 761 s.
The compound `Cc1ccc2c(c1)N(C)N=C(C(=O)N1CCOCC1)S2(=O)=O` yielded an RP-LC retention time of 669 s.
The value for `CC(=O)Nc1ccc(-c2noc(C3CCN(C(=O)CCC4CCCC4)CC3)n2)cc1` was 924 s; that for `O=C(Nc1nccs1)C1CCN(C(=O)c2cccc(C(F)(F)F)c2)CC1` was 728 s.
The value for `COC(=O)CC(=O)Nc1cc2c(cc1N1CCCC1)n(C)c(=O)n2C` was 565 s.
The result for `O=C(CSc1nc2ccccc2o1)NCCn1nc(-c2ccco2)ccc1=O` reads 674 s; that for `CCOC(=O)C1=C(CN2CCC(Cc3ccccc3)CC2)NC(=O)NC1c1ccco1` (stereo unspecified), 708 s.
As for `COc1ccccc1NC(=O)Cn1ncc2c(c1=O)N(CC1CC1)C(=O)CS2`, the RP-LC retention time was 794 s.
The value for `O=C(CC1CCCC1)NCc1cccnc1-c1ccc(F)cc1` was 674 s.
The compound `O=C(O)C1CC(=O)N(c2ccc3c(c2)OCO3)C1` (stereo unspecified) had an RP-LC retention time of 619 s.
The result for `CN(C)c1ccc(/C=C2\C(=O)Nc3ccccc32)cc1` reads 1010 s; that for `COCc1nncn1C1CCN(C(=O)c2cc(F)cc(F)c2)CC1`, 628 s.
Turning to `O=C(NCc1ccc(F)cc1)c1ccnc(N2CCNC(c3ccccc3)C2)c1` (stereo unspecified), the RP-LC retention time was determined as 635 s.
The result for `CCOc1ccc(C(=O)N2C[C@H](c3nc(-c4ccncc4)no3)[C@@H](C)C2)cc1` reads 838 s; that for `COc1ccccc1C(=O)N1CCN(C2=NS(=O)(=O)c3ccccc32)CC1`, 698 s.
The value for `O=C(Cc1nc(-c2cccnc2)n[nH]1)NCCc1ccccc1` was 588 s; that for `Cc1c(CN2CCSCC2)nnn1-c1ccccc1` was 583 s.
`NC(=O)CSc1ccc(-c2ccccn2)nn1` came in with an RP-LC retention time of 554 s.
Turning to `Cc1ccc([N+](=O)[O-])cc1NC(=O)Cc1cc(-c2ccc(F)cc2)on1`, the RP-LC retention time stood at 896 s.
The result for `O=C(NCCCN1CCCC1)c1cc2n(n1)CCCN(Cc1ccc(F)cc1)C2=O` reads 619 s; that for `CCCn1ccc2sc(C)c(C(=O)NCc3ccc(F)cc3Cl)c2c1=O`, 1000 s; that for `CCCn1cc(C(=O)NC(C)c2ccc(OC)cc2)c2cccnc21` (stereo unspecified), 869 s.
The result for `CNC(=O)CCc1nc2ccccc2n(CC(=O)NC(C)CCc2ccccc2)c1=O` (stereo unspecified) reads 728 s.
The value for `COc1ccc(C(=O)N2[C@H]3CC[C@@H]2c2cnc(-c4ccc(F)cc4)nc2C3)cn1` was 892 s; that for `COc1ccc(-n2ccc(=O)c(-c3nc(-c4ccc(Br)cc4)no3)n2)cc1` was 984 s.
In the case of `Cc1csc(-c2cc(S(=O)(=O)N3CCCCC3)cn2CC(=O)N2CCCCC2)n1`, the RP-LC retention time was 1020 s.
Compound `COCC(=O)N(C1CCOCC1)C1CCN(S(=O)(=O)c2cccc(C)c2)CC1` displayed an RP-LC retention time of 762 s.
The value for `Cc1ccc(C)c(N2CCN(C(=O)c3cn4c(n3)CCCC4)CC2)c1` was 689 s.
The compound `Fc1ccc(-n2cc(-c3noc(-c4nccc5ccccc45)n3)nn2)cc1` had an RP-LC retention time of 1120 s.
In turn, `Cc1cccc(N2C(=O)N(Cc3cccc(F)c3)S(=O)(=O)c3cccnc32)c1` registered an RP-LC retention time of 1090 s.
Consider `CCN1C(=O)C(C)(C(=O)Nc2cc(C)ccc2C)Oc2cccnc21` (stereo unspecified), for which the RP-LC retention time amounted to 744 s.
The value for `Cc1cccc(CNC(=O)c2cn3ccncc3n2)c1` was 705 s; that for `Cc1nnc2ccc(N3CCN(C(=O)Cc4cccc5ccccc45)CC3)nn12` was 660 s.
The value for `O=C(c1cccs1)N1CCC2(CC1)N=C(c1ccc(Cl)cc1)NO2` was 844 s.
The result for `Cc1cccn2c(Nc3ccc4c(c3)OCCO4)c(-c3cccc(Cl)c3)nc12` reads 727 s; that for `CCn1ccc2c(cc(C(=O)Nc3ccc(Br)c(C)c3)n2C)c1=O`, 895 s; that for `Cc1ccccc1OCC1c2ccsc2CCN1C(=O)CN(CC1CCCO1)C(=O)NC(C)(C)C` (stereo unspecified), 1140 s.
`CC1CCN(C(=O)c2cc(S(=O)(=O)N(C)CC(=O)N3CCN(c4ccccc4)CC3)c[nH]2)CC1` showed an RP-LC retention time of 862 s.
The value for `O=C(c1cccs1)N1CC(C(=O)N2CCN(c3ccccc3Cl)CC2)C1` was 788 s; that for `N#Cc1cccc(-c2cn3c(n2)N(C(=O)Cc2ccsc2)CCC3)c1` was 822 s.
The result for `CCCn1ccc2sc(C)c(C(=O)NC3CCCCCC3)c2c1=O` reads 897 s.
In turn, `CCCc1nc(C(C)(C)O)c(C(=O)OCc2oc(=O)oc2C)n1Cc1ccc(-c2ccccc2-c2nn[nH]n2)cc1` came in with an RP-LC retention time of 832 s.
The compound `Cn1nc(-c2nnc(-c3ccccc3)o2)c2c1CCN(S(=O)(=O)c1cc(F)ccc1F)C2` displayed an RP-LC retention time of 940 s.
Consider `COC(=O)C1=CN(c2ccc(N(C)C)cc2)c2ccc(F)cc2S1(=O)=O`, for which the RP-LC retention time worked out at 730 s.
The result for `COc1ccc(-n2c(=O)c3sccc3n(Cc3nc(-c4cccc(OC)c4)no3)c2=O)cc1` reads 949 s.
The value for `O=C(NC1CC1)c1c2c(nc3ccc(F)cc13)CCC2` was 650 s.
